Test results reported in ChEMBL document CHEMBL4433268, “Rational design of a SHP-2 targeted, fluorogenic peptide substrate” (Bioorg Med Chem Lett, 2019).
Activity calls are given as the source filed them. The calls are words filed in the database; no cut-off is given here. Non-standard residues stand in square brackets, D forms with d. Residues, ends and D or L forms follow the SMILES beside them. Ala(7-OPO3H2-coumarin-4-yl) = N[C@@H](Cc1cc(=O)oc2cc(OP(=O)(O)O)ccc12)C(=O)O

Assays:
[1] = molecular target: T1, Tyrosine-protein phosphatase non-receptor type 22 (Homo sapiens) (UniProt Q9Y2R2); assay: Substrate activity at LYP (unknown origin) expressed in Escherichia coli BL21 (DE3) incubated for 60 mins by fluorescence based assay
T1 sequence (whole entry): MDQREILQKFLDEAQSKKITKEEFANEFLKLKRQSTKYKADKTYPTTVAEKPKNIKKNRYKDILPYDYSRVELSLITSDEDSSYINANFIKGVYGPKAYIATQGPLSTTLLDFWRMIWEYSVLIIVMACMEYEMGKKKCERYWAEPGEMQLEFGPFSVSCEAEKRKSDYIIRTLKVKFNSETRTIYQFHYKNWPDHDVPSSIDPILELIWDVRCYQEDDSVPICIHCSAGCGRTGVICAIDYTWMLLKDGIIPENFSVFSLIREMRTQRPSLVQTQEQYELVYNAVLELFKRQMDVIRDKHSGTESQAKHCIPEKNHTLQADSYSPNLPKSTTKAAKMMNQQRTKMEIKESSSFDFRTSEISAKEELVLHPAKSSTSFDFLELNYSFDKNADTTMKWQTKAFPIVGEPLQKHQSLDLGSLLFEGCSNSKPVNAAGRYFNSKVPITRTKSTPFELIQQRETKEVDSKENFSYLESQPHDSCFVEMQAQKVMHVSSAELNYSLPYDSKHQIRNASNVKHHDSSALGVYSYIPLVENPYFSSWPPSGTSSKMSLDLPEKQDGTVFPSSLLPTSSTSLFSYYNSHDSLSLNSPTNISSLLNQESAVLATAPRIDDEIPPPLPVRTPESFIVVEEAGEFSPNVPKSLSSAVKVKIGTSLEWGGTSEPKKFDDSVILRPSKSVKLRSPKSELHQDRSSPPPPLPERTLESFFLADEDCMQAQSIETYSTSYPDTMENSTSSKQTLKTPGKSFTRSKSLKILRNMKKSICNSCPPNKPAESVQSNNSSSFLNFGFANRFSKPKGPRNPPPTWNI

[2] = molecular target: T2, Tyrosine-protein phosphatase non-receptor type 7 (Homo sapiens) (UniProt P35236); assay: Substrate activity at HEPTP (unknown origin) expressed in Escherichia coli BL21 (DE3) incubated for 60 mins by fluorescence based assay
T2 sequence (whole entry): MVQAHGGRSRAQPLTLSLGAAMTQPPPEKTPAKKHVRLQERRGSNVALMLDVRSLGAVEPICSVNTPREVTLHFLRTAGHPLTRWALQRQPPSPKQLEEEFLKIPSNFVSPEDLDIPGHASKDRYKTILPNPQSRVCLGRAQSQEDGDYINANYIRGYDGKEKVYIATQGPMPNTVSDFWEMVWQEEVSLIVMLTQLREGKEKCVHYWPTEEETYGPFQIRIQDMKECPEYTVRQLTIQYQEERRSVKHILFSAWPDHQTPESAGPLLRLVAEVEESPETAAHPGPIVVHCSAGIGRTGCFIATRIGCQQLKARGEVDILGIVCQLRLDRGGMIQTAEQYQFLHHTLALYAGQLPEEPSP

[3] = molecular target: T3, Tyrosine-protein phosphatase non-receptor type 11 (Homo sapiens) (UniProt Q06124); assay: Substrate activity at SHP2 (unknown origin) expressed in Escherichia coli BL21 (DE3) incubated for 60 mins by fluorescence based assay
T3 sequence (whole entry): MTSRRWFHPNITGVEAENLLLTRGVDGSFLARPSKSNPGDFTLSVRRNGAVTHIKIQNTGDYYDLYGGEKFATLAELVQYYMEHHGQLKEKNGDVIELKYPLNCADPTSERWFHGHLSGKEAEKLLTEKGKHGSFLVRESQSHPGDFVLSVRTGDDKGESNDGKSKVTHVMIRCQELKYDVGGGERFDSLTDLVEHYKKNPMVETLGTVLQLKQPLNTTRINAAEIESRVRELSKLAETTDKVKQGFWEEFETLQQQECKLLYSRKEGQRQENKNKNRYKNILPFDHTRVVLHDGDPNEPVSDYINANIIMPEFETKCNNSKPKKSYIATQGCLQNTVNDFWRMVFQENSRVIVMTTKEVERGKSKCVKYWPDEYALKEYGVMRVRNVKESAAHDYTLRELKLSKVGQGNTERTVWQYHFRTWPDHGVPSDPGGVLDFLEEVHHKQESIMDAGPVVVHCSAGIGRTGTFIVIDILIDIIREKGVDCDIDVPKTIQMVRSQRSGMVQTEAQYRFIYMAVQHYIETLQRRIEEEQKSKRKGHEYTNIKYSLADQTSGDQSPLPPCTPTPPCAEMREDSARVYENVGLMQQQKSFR

[4] = molecular target: T4, Tyrosine-protein phosphatase non-receptor type 4 (Homo sapiens) (UniProt P29074); assay: Substrate activity at MEG1 (unknown origin) expressed in Escherichia coli BL21 (DE3) incubated for 60 mins by fluorescence based assay
T4 sequence (whole entry): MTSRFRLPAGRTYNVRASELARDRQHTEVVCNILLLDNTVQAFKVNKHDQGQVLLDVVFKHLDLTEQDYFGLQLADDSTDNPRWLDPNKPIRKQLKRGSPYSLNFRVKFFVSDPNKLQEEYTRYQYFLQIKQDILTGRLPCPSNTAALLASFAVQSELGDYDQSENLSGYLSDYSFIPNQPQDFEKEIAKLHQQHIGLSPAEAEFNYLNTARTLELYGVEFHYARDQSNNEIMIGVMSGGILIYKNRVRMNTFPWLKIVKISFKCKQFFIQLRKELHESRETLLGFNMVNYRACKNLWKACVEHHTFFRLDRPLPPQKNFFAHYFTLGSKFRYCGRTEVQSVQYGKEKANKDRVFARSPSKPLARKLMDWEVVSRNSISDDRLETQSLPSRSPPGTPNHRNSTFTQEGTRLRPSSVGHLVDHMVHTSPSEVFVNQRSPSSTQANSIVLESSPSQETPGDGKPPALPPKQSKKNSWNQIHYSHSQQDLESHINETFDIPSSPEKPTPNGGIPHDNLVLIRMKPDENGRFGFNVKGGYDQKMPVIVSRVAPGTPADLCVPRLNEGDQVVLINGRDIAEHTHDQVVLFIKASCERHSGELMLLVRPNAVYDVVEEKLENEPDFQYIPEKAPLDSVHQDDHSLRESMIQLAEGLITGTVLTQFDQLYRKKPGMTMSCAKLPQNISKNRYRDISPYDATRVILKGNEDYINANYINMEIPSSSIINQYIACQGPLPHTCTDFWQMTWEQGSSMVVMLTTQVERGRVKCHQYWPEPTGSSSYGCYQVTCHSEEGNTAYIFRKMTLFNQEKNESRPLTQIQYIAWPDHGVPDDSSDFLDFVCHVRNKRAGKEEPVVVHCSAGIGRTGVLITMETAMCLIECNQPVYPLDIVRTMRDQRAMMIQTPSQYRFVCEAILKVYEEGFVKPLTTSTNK

[5] = molecular target: Receptor-type tyrosine-protein phosphatase mu (Homo sapiens) (UniProt P28827); assay: Substrate activity at PTPmu (unknown origin) expressed in Escherichia coli BL21 (DE3) incubated for 60 mins by fluorescence based assay
Chain of Receptor-type tyrosine-protein phosphatase mu (Homo sapiens) (P28827 whole entry): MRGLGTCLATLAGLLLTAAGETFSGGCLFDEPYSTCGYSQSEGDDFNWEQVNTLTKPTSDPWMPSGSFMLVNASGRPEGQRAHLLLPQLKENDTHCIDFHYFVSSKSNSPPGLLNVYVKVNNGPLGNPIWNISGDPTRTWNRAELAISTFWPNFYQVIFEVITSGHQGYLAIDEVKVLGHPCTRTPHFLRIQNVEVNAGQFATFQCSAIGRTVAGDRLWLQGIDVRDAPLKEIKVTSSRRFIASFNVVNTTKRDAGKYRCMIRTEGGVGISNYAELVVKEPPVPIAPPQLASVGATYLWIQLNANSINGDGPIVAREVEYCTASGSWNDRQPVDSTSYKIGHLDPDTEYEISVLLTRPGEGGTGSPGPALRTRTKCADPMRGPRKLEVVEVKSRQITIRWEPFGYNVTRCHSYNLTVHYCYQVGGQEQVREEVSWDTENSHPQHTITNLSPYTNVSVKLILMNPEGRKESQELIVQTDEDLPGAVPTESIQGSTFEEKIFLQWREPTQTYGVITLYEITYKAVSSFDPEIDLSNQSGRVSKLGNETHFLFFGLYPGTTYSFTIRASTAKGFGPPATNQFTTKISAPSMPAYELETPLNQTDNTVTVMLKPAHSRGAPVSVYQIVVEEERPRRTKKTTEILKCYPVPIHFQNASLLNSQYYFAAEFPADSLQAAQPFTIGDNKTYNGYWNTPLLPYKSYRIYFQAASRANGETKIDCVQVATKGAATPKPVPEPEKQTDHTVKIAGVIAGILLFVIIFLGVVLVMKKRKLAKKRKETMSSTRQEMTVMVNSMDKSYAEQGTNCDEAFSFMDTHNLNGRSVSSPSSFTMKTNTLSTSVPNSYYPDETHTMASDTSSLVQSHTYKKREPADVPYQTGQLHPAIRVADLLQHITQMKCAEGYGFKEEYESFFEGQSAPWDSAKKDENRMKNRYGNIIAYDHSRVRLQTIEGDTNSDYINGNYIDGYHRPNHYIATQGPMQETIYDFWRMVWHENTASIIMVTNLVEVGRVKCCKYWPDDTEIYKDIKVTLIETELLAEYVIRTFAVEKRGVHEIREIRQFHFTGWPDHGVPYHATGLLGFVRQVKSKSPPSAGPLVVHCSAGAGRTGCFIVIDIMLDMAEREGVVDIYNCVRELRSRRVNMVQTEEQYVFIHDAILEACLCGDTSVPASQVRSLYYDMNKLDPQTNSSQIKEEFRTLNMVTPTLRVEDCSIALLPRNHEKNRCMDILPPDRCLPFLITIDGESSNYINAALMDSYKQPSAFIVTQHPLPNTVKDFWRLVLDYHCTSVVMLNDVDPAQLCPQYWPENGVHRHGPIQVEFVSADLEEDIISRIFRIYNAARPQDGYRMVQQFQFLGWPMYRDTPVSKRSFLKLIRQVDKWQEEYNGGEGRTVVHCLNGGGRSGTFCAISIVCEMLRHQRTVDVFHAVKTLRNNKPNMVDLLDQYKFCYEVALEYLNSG

CC[C@H](C)[C@H](NC(=O)[C@@H](NC(=O)[C@H](CC(=O)O)NC(=O)[C@H](CC(=O)O)NC(C)=O)[C@@H](C)O)C(=O)N[C@@H](Cc1cc(=O)oc2cc(OP(=O)(O)O)ccc12)C(=O)N[C@@H](CC(=O)O)C(=O)N[C@H](C(=O)N[C@@H](CC(C)C)C(=O)N[C@@H](CC(=O)O)C(N)=O)C(C)C (Ac-DDTI[Ala(7-OPO3H2-coumarin-4-yl)]DVLD-NH2)
Activity [1]: Active
Activity [2]: inactive
Activity [3]: Active
Activity [4]: inactive
Activity [5]: inactive

CC[C@H](C)[C@H](NC(=O)[C@@H](NC(=O)[C@H](CC(=O)O)NC(=O)[C@H](CC(=O)O)NC(C)=O)[C@@H](C)O)C(=O)N[C@@H](Cc1cc(=O)oc2cc(OP(=O)(O)O)ccc12)C(=O)N[C@H](C(=O)N[C@H](C(=O)N[C@@H](CC(C)C)C(=O)N[C@@H](CC(=O)O)C(N)=O)C(C)C)[C@@H](C)O (Ac-DDTI[Ala(7-OPO3H2-coumarin-4-yl)]TVLD-NH2)
Activity [3]: Active
Activity [5]: inactive

CC[C@H](C)[C@H](NC(=O)[C@@H](NC(=O)[C@H](CC(=O)O)NC(=O)[C@H](CC(=O)O)NC(C)=O)[C@@H](C)O)C(=O)N[C@@H](Cc1cc(=O)oc2cc(OP(=O)(O)O)ccc12)C(=O)N[C@H](C(=O)N[C@H](C(=O)N[C@@H](CC(C)C)C(=O)N[C@@H](CC(=O)O)C(N)=O)C(C)C)C(C)C (Ac-DDTI[Ala(7-OPO3H2-coumarin-4-yl)]VVLD-NH2)
Activity [1]: Active
Activity [2]: Active
Activity [3]: Active
Activity [4]: Active
Activity [5]: inactive

CC[C@H](C)[C@H](NC(=O)[C@@H](NC(=O)[C@@H]1CCCN1C(=O)[C@H](CC(=O)O)NC(C)=O)[C@@H](C)O)C(=O)N[C@@H](Cc1cc(=O)oc2cc(OP(=O)(O)O)ccc12)C(=O)N1CCC[C@H]1C(=O)N[C@H](C(=O)N[C@@H](CC(C)C)C(=O)N[C@@H](CC(=O)O)C(N)=O)C(C)C (Ac-DPTI[Ala(7-OPO3H2-coumarin-4-yl)]PVLD-NH2)
Activity [3]: Active
Activity [5]: inactive

CC[C@H](C)[C@H](NC(=O)[C@@H](NC(=O)[C@H](CO)NC(=O)[C@H](CC(=O)O)NC(C)=O)[C@@H](C)O)C(=O)N[C@@H](Cc1cc(=O)oc2cc(OP(=O)(O)O)ccc12)C(=O)N[C@@H](CC(=O)O)C(=O)N[C@H](C(=O)N[C@@H](CC(C)C)C(=O)N[C@@H](CC(=O)O)C(N)=O)C(C)C (Ac-DSTI[Ala(7-OPO3H2-coumarin-4-yl)]DVLD-NH2)
Activity [3]: Active
Activity [5]: inactive

CC[C@H](C)[C@H](NC(=O)[C@@H](NC(=O)[C@H](CO)NC(=O)[C@H](CC(=O)O)NC(C)=O)[C@@H](C)O)C(=O)N[C@@H](Cc1cc(=O)oc2cc(OP(=O)(O)O)ccc12)C(=O)N[C@H](C(=O)N[C@H](C(=O)N[C@@H](CC(C)C)C(=O)N[C@@H](CC(=O)O)C(N)=O)C(C)C)[C@@H](C)O (Ac-DSTI[Ala(7-OPO3H2-coumarin-4-yl)]TVLD-NH2)
Activity [3]: Active
Activity [5]: inactive

CC[C@H](C)[C@H](NC(=O)[C@@H](NC(=O)[C@H](CO)NC(=O)[C@H](CC(=O)O)NC(C)=O)[C@@H](C)O)C(=O)N[C@@H](Cc1cc(=O)oc2cc(OP(=O)(O)O)ccc12)C(=O)N[C@H](C(=O)N[C@H](C(=O)N[C@@H](CC(C)C)C(=O)N[C@@H](CC(=O)O)C(N)=O)C(C)C)C(C)C (Ac-DSTI[Ala(7-OPO3H2-coumarin-4-yl)]VVLD-NH2)
Activity [3]: Active
Activity [5]: inactive
